Here are results for 3 molecules from paper PMC10531095, “Photonics of Some Monomethine Cyanine Dyes in Solutions and in Complexes with Biomolecules” (International Journal of Molecular Sciences, 2023).

For assay [1], the system named is dsDNA. Briefly: Spectral fluorescent titration of the dyes with dsDNA in PBS. It counts as binding, chick. The conditions noted are these: for Ifl/Ifl0, relative increase in the fluorescence intensity: cdsDNA = 1 × 10^−4 mol L^−1; for φfl^b, fluorescence quantum yield of the dye in the presence of biopolymer: cdsDNA~5 × 10^−5 mol L^−1; for KeffHill, effective complexation constant (Hill) / KeffBH, effective complexation constant (Benesi–Hildebrand): PBS buffer; for KeffBH, effective complexation constant (Benesi–Hildebrand): fluorescent titration; for αb, proportion of bound dye: cbiomol = 5 × 10^−5 mol L^−1; for K2Sc, complexation constant (Scatchard): constant and nSc both varied; for Fmax/F0, fluorescence growth at 100% binding: from the Benesi–Hildebrand dependence; for K1Sc, complexation constant (Scatchard): nSc = const = 10 b.p. From the text:
Complexation of MCD 1–4 with DNA (double-stranded and single-stranded) and with human serum albumin (HSA) was studied by spectral fluorescent methods in a wide range of biopolymer concentrations (cdsDNA = 0–1.5 × 10^−4 mol L^−1; cssDNA = 0–1.4 × 10^−4 mol L^−1; cHSA = 0–1.4 × 10^−4 mol L^−1 in PBS buffer). The absorption, fluorescence, and fluorescence excitation spectra of MCD 1 and 3 in the presence of dsDNA are shown in Figure 3 and Figure 4, respectively.
The complication of chemical equilibrium, and the variety of interactions between MCD and biopolymer (dye aggregation/deaggregation, the possibility of forming complexes of several types with DNA/HSA) makes it problematic to determine the exact values of the complexation constants of the dyes with DNA. The values of the effective equilibrium constants of the complexation reaction of MCD with biopolymers (Keff, L mol^−1, see Table 7) were estimated from spectral fluorescent data. In this case, we had to assume a simple equilibrium MCD (monomer, free) ⇄ MCD (monomer, bound). For these purposes, we used the Benesi–Hildebrand [59], Hill, and Scatchard formalisms (See Supplementary Materials, Equations (S9)–(S13)). For dsDNA, fitting according to the modified Scatchard equation was carried out assuming one dye molecule per one DNA turn (K1Sc at nSc = const = 10 b.p.), as well as varying both the constant (K2Sc) and the stoichiometric coefficient (nSc). In the case of ssDNA, nSc is given per one base; for HSA, nSc = 1.
Single-stranded form of DNA (single-stranded DNA; ssDNA) was obtained according to the method described in [74]. The concentrations of DNA and the dyes were controlled spectrophotometrically. Molar extinction coefficient of dsDNA (ε, L⋅mol^−1⋅cm^−1) was taken to be 13,200 L mol^−1 cm^−1 (per base pair); for ssDNA, ε = 9045 L mol^−1 cm^−1 (per one base) was used. For MCD 1 and 2 in an aqueous buffer solution, we used extinction coefficients ε = 40,000 and 68,000 L mol^−1 cm^−1, respectively, which were taken from. For MCD 3 and 4, the molar extinction coefficients in ethanol solution were 69,200 and 49,000 L mol^−1 cm^−1 (taken from). […] Spectral fluorescent characteristics of MCD in complexes with biomacromolecules were studied by titration of dye solutions (see Supplementary Materials). The thermal dissociation (“melting”) of dsDNA in the presence of MCD was studied spectrophotometrically (λabs = 260 nm), the sample was heated (t° = 30–95 °C) using Peltier cells, and the temperature was controlled using a thermocouple. Melting points tm, corresponding to 50% hyperchromia of DNA samples were obtained.
Absorption spectra were recorded on an SF-2000 spectrophotometer (Experimental-Construction Company “Spectrum”, St. Petersburg, Russia); fluorescence and fluorescence excitation spectra were recorded on a Fluorat-02-Panorama spectrofluorimeter (Group of Companies “Lumex”, St. Petersburg, Russia). The fluorescence and fluorescence excitation spectra were corrected for the spectral characteristics of the instrument (excitation channel signal) and sample transmission. Changes in the intrinsic fluorescence of HSA upon binding of MCD (in the presence of the dyes) were recorded in the synchronous fluorescence scanning (SFS) mode. In SFS mode, when registering spectra, a fixed difference Δλ= λfl − λex is maintained for the channels of excitation and registration. Synchronous scanning spectra were obtained at Δλ = 15 nm (fluorescence of tyrosine residues in the HSA molecule) and Δλ = 60 nm (fluorescence of tryptophan). The spectra were measured in 1 cm quartz semi-micro cells (Bio-Rad, Hercules, CA, USA).
The equilibrium constants of MCD complexation with biomolecules (Ka, L mol^−1) were obtained from fluorescence spectra using the Benesi–Hildebrand [59], Hill, and Scatchard equations [61] (see Supplementary Materials, Equations (S9)–(S13)). […]

Assay [2] relates to dsDNA. Briefly: Flash photolysis: triplet state of MCD in the presence of dsDNA. More on the design: species or system chick. The conditions noted are these: for k1, decay rate constant of the T state (first exponent) / k2, decay rate constant of the T state (second exponent): two-exponential decay. From the text:
Upon direct flash photoexcitation of deoxygenated solutions of MCD 1–4, signals corresponding to triplet–triplet (T–T) absorption were not observed due to the low efficiency of intersystem crossing to the triplet (T) state, in comparison with competing processes of nonradiative deactivation of excited states of dye molecules, which is common for MCD [41]. Complexation with dsDNA hinders these competing processes, which leads to an increase in the quantum yield of the T state of MCD. In the presence of dsDNA, under direct photoexcitation, the signals of T states of MCD 1–3 were detected, and their different T–T absorption spectra were measured (Figure 10).
Quantum yields of intersystem crossing to the triplet state (ΦST) of MCD 1–3 in the presence of dsDNA were estimated by flash photolysis using optical actinometry (see Materials and Methods). The obtained values of ΦST for MCD 1–3 were 2.6 ± 0.4%, 5.7 ± 0.8%, and 10.7 ± 1.5%, respectively.
The spectral–kinetic characteristics of the T state of MCD were studied by flash photolysis. The experiment was carried out on a setup with excitation by a xenon lamp (lamp flash energy ~50 J, duration τ1/2 = 10 μs). When registering T states, the solutions were deoxygenated using a vacuum setup. The manometric unit was used to determine the air pressure in a series of experiments on T state quenching by dissolved oxygen. The T state of MCD 4 in PBS solution in the presence of dsDNA was obtained by energy transfer from the triplet level of sodium naphthalene-2-sulfonate (ET~21,000 cm^−1 [83]). The quantum yields of T states (ΦT) of the dyes in the presence of dsDNA were estimated actinometrically. Dyes with known ΦT were used as actinometers: the xanthene dye Acid Red 87 (ΦT = 0.8 (aq); [84]) and the cyanine dye 3,3′-diethyl-9-methoxythiacarbocyanine iodide (ΦT = 0.16–0.20 in n-propanol; [85]).

The mark [3] stands for this setting: cdsDNA = 1 × 10^−4 mol L^−1, compared to the initial spectra in PBS.

Regarding `CC[N+](CC)(CC)CCC[n+]1ccc(/C=C2\Sc3ccccc3N2C)c2ccc(O)cc21` [MCD 1], in the assay with dsDNA [1], the “Ifl/Ifl0, relative increase in the fluorescence intensity” value (shortened to “Ifl/Ifl0, relative increase”) is “about 425 times” and the “φfl^b, fluorescence quantum yield of the dye in the presence of biopolymer” value (“φfl^b, fluorescence quantum yield” for short) was determined as 13 ± 1.5%. This molecule also showed an LOD in the assay with dsDNA [1] (detection of dsDNA) of 7.2 nM. Also, in the assay on dsDNA [1] (dsDNA), the LOD result is reported as “about 10^−8 mol L^−1”; the LOQ result is listed as “about 10^−8 mol L^−1”; the “nHill, Hill coefficient” value turned out to be 1.04; the “nSc, stoichiometric coefficient (Scatchard)” value (“nSc … (Scatchard)” below) was 2. Further, in the assay on dsDNA [1] (dsDNA), the KeffHill, effective complexation constant (Hill) is 53400 L/mol; the KeffBH, effective complexation constant (Benesi–Hildebrand) amounted to 54000 L/mol; the “αb, proportion of bound dye” value is about 80%; the K2Sc, complexation constant (Scatchard) worked out at 169000 L/mol. In the assay on dsDNA [1] (dsDNA), the “Fmax/F0, fluorescence growth at 100% binding” value (“Fmax/F0 … at 100% binding” for short) worked out at 460 and the K1Sc, complexation constant (Scatchard) stood at 793000 L/mol. Moreover, in the assay with dsDNA [1] (dsDNA, listed as 1), the “αb, proportion of bound dye” value is given as 80%. In addition, in the assay with dsDNA [1] (high concentrations of dsDNA), the “hypochromia of the absorption band” value is 8%. Moreover, the LOQ with dsDNA [1] (quantification of dsDNA) amounted to 21 nM. Besides, in the assay with dsDNA [2], the “k1, decay rate constant of the T state (first exponent)” value is ~ 9.9 × 10^3 s^−1 and the “k2, decay rate constant of the T state (second exponent)” value was about 2000 s⁻¹.
`CCN1/C(=C/c2ccc3ccccc3[n+]2CC)C=Cc2ccccc21` [MCD 4]: in the assay with dsDNA [1], the “Ifl/Ifl0, relative increase” value stood at 115 times and the “φfl^b, fluorescence quantum yield” value is about 1.5 ± 0.2%. The “hypochromia of the absorption band” value in the assay on dsDNA [1] (setting [3]) turned out to be 36%. In the assay on dsDNA [1] (detection of dsDNA), the LOD stood at 94 nM. In the assay with dsDNA [1] (dsDNA), the “nHill, Hill coefficient” value stood at 0.62; the “nSc … (Scatchard)” value worked out at 2; the KeffHill, effective complexation constant (Hill) was 1850 L/mol; the KeffBH, effective complexation constant (Benesi–Hildebrand) came to 19500 L/mol. For the same molecule, in the assay with dsDNA [1] (dsDNA), the “αb, proportion of bound dye” value turned out to be 46%; the K2Sc, complexation constant (Scatchard) was found to be 37000 L/mol; the “Fmax/F0 … at 100% binding” value turned out to be 169; the K1Sc, complexation constant (Scatchard) was found to be 186000 L/mol. Further, the LOQ in the assay with dsDNA [1] (quantification of dsDNA) stood at 210 nM. In the assay on dsDNA [2], the “τT, lifetime of the T state” value was ~ 0.03 ms.
On to `CCN1/C(=C/c2sc3ccccc3[n+]2CC)Sc2ccccc21` [MCD 3], for which, in the assay with dsDNA [1], the “Ifl/Ifl0, relative increase” value came to 79 times and the “φfl^b, fluorescence quantum yield” value amounted to 4.8 ± 0.5%. For the same molecule, the “hypochromia of the absorption band” value in the assay on dsDNA [1] (setting [3]) is on record as 44%. The LOD in the assay on dsDNA [1] (detection of dsDNA) was 41 nM. In the assay on dsDNA [1] (dsDNA), the “nHill, Hill coefficient” value is 0.88; the “nSc … (Scatchard)” value amounted to 35; the KeffHill, effective complexation constant (Hill) is 6900 L/mol; the KeffBH, effective complexation constant (Benesi–Hildebrand) is 13500 L/mol. In the assay on dsDNA [1] (dsDNA), the “αb, proportion of bound dye” value came out at 40%; the K2Sc, complexation constant (Scatchard) came out at 480000 L/mol; the “Fmax/F0 … at 100% binding” value was found to be 136; the K1Sc, complexation constant (Scatchard) is 135000 L/mol. Also, the LOQ in the assay on dsDNA [1] (quantification of dsDNA) came to 126 nM. For the same molecule, the “kqO2, rate constant of triplet state quenching by dissolved oxygen” value in the assay on dsDNA [2] (main (short-lived) component) was found to be 3.6e+08 M⁻¹ s⁻¹. In the assay on dsDNA [2], the “k1, decay rate constant of the T state (first exponent)” value is on record as ~ 1.3 × 10^4 s^−1 and the “k2, decay rate constant of the T state (second exponent)” value is ~ 4 × 10^3 s^−1.
